Measurements: PMC10567702, “A concerted ATPase cycle of the protein transporter AAA-ATPase Bcs1” (Nature Communications, 2023)
One block for each compound: values may come before it.

Legend:
Bcs1 (mBcs1) [1] = target: T1, Bcs1 (mBcs1) (Mus musculus, UniProt Q9CZP5); test: microscale thermophoresis, RED-tris-NTA labelled Bcs1; format: binding
T1 construct: gene Bcs1l; full length residues 1-418, C-terminal hexa-His tag, expressed in Pichia pastoris, purified in DDM, homo-heptamer; reconstituted in soy polar lipid membranes for HS-AFM
T1 sequence (Q9CZP5 1-418): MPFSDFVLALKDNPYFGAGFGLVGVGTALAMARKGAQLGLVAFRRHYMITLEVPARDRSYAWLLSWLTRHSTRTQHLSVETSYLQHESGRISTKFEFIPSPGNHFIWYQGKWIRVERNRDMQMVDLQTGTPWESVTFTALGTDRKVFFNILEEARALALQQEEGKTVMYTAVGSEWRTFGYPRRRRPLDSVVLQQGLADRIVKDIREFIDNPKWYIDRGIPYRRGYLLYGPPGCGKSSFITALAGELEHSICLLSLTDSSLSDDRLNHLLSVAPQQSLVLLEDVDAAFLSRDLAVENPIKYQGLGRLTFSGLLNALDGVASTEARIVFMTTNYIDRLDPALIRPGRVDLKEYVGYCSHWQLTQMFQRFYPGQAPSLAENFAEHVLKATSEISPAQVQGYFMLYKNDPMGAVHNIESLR

Bcs1 (mBcs1) [2] = target: T1, Bcs1 (mBcs1); test: HS-AFM imaging, conformational change on binding; conditions: 10 µM ATPγS; reconstituted membranes; 10 mM HEPES pH 7.5, 200 mM NaCl, 2 mM MgCl2; ambient temperature
Bcs1 (mBcs1) [3] = target: T1, Bcs1 (mBcs1); test: HS-AFM imaging, probability of AMP-PNP conformation, Hill fit; format: binding

Kd (Bcs1 (mBcs1) [1]): ~500 nM
Compound: Nc1ncnc2c1ncn2[C@@H]1O[C@H](COP(=O)(O)OP(=O)(O)O)[C@@H](O)[C@H]1O [ADP]

Compound: Nc1ncnc2c1ncn2[C@@H]1O[C@H](COP(=O)(O)OP(=O)(O)OP(O)(O)=S)[C@@H](O)[C@H]1O [ATPγS]
HS-AFM imaging, conformational change on binding (Bcs1 (mBcs1) [2]): In the presence of ATPγS however, instead of a ring structure, we found a rather flat disk

EC50 (Bcs1 (mBcs1) [3]): ~4000 nM
Compound: Nc1ncnc2c1ncn2[C@@H]1O[C@H](COP(=O)(O)OP(=O)(O)NP(=O)(O)O)[C@@H](O)[C@H]1O [AMP-PNP]
